“Also recorded” adds a separate entry of the source. Where no end group is shown, it is not given here. [ ]: non-standard residue; d: D form. Lys(Me3) = C[N+](C)(C)CCCC[C@H](N)C(=O)O
How the values were obtained:
[1] = system: SUV39H2; test: Methylation of eIF4A3-K374 peptides by KMT (MALDI-TOF MS); type: biochemical; conditions: 20 µM KMT, 10 µM peptide, 200 µM SAM
Procedure: (§1) 7. Expression and purification of lysine methyltransferases and Chromodomains […]
(§2) 16. Methylation activity of wild type KMTs on eIF4A3-K374me0/1/2 peptides 20 µM lysine methyltransferase, 10 µM eIF4A3-me0/1/2 peptide and 200 µM SAM were incubated at room temperature for 1-2 hours in 50 mM Tris pH 8.0. Reaction was stopped by storing the microcentrifuge tubes on ice. After mixing, 0.8 µL of sample and 0.8 µL of α-cyano-4-hydroxycinnamic acid (CHCA) (dissolved in 50:50 0.1% TFA and acetonitrile) were combined on a MALDI plate. Samples were ionized using reflectron positive mode on Bruker Daltonics UltrafleXtreme MALDI TOF with detection carried out from 700-3500 m/z. Bruker Flex Analysis software was used to analyze the MALDI-TOF MS spectra.
(§3) 17. Isothermal Titration Calorimetry […]
(§4) The microsyringe (40µL) was loaded with 1.1 mM peptide and injected into the cell (200µL), occupied by CBX1 chromodomain at a concentration of 110 µM. Data was fitted to a single binding site model using Microcal ITC200 Software with Origin Lab 7.
(§5) KDM4A mammalian expression plasmid in CMV vector was purchased from Addgene (plasmid #24180). Full-length G9a in pCDNA3 vector was kind from Prof. Minkui Luo at the Memorial Sloan-Kettering Cancer Center. HEK293T/17 cells (ATCC) were grown in a T25 containing Delbucco’s Modified Eagle Medium (DMEM) (Corning) with 10% FBS at 37 °C, 5% CO2, and 95% relative humidity. When cells reached 80% confluency, 5 µg of plasmid and 10 µg

[2] = system: G9a; test: as above; type: biochemical; conditions: 20 µM KMT, 10 µM peptide, 200 µM SAM
Procedure: as §1, §2, §3, §4, §5

[3] = system: METTL20; test: as above; type: biochemical; conditions: 20 µM KMT, 10 µM peptide, 200 µM SAM
Procedure: (§6) expression constructs in pET28a or pET 28-MHL were obtained from Addgene: CAMKMT […]
(§7) (Addgene #60091) and METTL21C (Addgene #60100). Plasmids were transformed into E. Coli BL21 (DE3) competent cells (Invitrogen) using appropriate resistant antibiotic. A single colony was picked up and grown overnight at 37 °C in 10 mL of Luria-Bertani (LB) broth in the presence of 50 μg/mL kanamycin and 35 μg/mL chloramphenicol. The culture was diluted 100-fold and allowed to grow at 37 °C to an optical density (OD600) of a minimum of 0.8, and protein expression was induced overnight at 17 °C with 0.5 to 1.0 mM IPTG in an Innova 44® Incubator shaker (New Brunswick Scientific). Proteins were purified as follows: harvested cells were resuspended in 15 mL lysis buffer (50 mM Tris-HCl pH 8.0, 200 mM NaCl, 5 mM β-mercaptoethanol, 10% glycerol, 25 mM imidazole, Lysozyme, DNase, and Roche protease inhibitor cocktail). The cells were lysed by pulsed sonication (Qsonica-Q700), and centrifuged at 13,000 rpm for 40 min at 4°C. The soluble extracts were subject to Ni-NTA agarose resin (Thermo) according to manufacturer’s instructions. After passing 20 volumes of washing buffer (50 mM Tris-HCl pH 8.0, 200 mM NaCl, 5 mM β-mercaptoethanol, 10% glycerol, and 25 mM imidazole), proteins were eluted with a buffer containing 50 mM Tris-HCl pH 8.0, 200 mM NaCl, 5 mM β-mercaptoethanol, 10% glycerol, and 400 mM imidazole. Proteins were further purified by size exclusion chromatography (Superdex-200) using AKTA pure FPLC system (GE healthcare) with buffer containing 50 mM Tris-HCl pH 8.0, 200 mM NaCl, and 10% glycerol. Purified proteins were concentrated using Pierce™ Protein Concentrator PES, 10K MWCO, 5-20 mL (Thermo Scientific™ 88527). The protein concentration was determined using Bradford assay kit (BioRad Laboratories) with BSA as a standard. The concentrated proteins were stored at -80 °C before use. […]
as §2, §3
(§8) The microsyringe (40µL) was loaded with 1.1 mM peptide and injected into the cell (200µL), occupied by CBX1 chromodomain at a concentration of 110 µM. […]

[4] = system: METTL21C; test: as above; type: biochemical; conditions: 20 µM KMT, 10 µM peptide, 200 µM SAM
Procedure: as §6, §7, §2, §3, §8

[5] = system: METTL21A; test: as above; type: biochemical; conditions: 20 µM KMT, 10 µM peptide, 200 µM SAM
Procedure: as §6, §7, §2, §3, §8

[6] = system: DOT1L; test: as above; type: biochemical; conditions: 20 µM KMT, 10 µM peptide, 200 µM SAM
Procedure: as §6, §7, §2, §3, §8

[7] = biological target: T1, CBX1 chromodomain (Homo sapiens, UniProt P83916); test: Isothermal titration calorimetry of peptide binding to CBX1 chromodomain; conditions: ITC, T 288.15 K in Table S6
T1 construct: occupied by CBX1 chromodomain at a concentration of 110 µM; 6xHis (N); made in house

[8] = biological target: T1, CBX1 chromodomain; test: as above; conditions: ITC, 25 °C, 1.1 mM peptide into 110 µM CBX1 chromodomain, 50mM Tris pH 8.0
Procedure: as §1
17. Isothermal Titration Calorimetry
Isothermal titration calorimetry (ITC) was performed with an ITC200 instrument (MicroCal, Malvern). Experiments were conducted at 25 °C while stirring at 750 rpm. Buffers of protein […]
were matched to 200mM NaCl, 10% glycerol, and 50mM Tris pH 8.0. Each titration was performed as follows: one initial injection of 0.4 µL for 0.8 seconds, followed by 19 injections of 2.0 µL for 4 seconds, with ≥2 mins between each injection. The initial injection was discarded prior to data analysis. The microsyringe (40µL) was loaded with 1.1 mM peptide and injected into the cell (200µL), occupied by CBX1 chromodomain at a concentration of 110 µM. Data was fitted to a single binding site model using Microcal ITC200 Software with Origin Lab 7.
as §5

[9] = system: KDM4E; test: Demethylase activity of wild type KDM4E on peptide substrates (MALDI-TOF MS); type: biochemical; conditions: 10 µM enzyme, 10 µM peptide, 1 mM 2OG, 50 mM Tris pH 8, 37°C, three hours
Procedure: 200 FPLC column. The proteins were concentrated via centrifugation. Protein concentration was determined using Bradford assay.
The N-terminal 6xHis-tagged KDM4E construct for bacterial expression was purchased from Addgene (#38990) and expressed following reported method.8 The wild type KDM4E plasmid was transformed into E. Coli BL21 (DE3) competent cells (Invitrogen) using pNIC28-Bsa4 kanamycin-resistant vector. A single colony was grown overnight at 37 °C in 10 mL of Luria-Bertani (LB) broth in the presence of 50 μg/mL kanamycin and 35 μg/mL chloramphenicol. The culture was diluted 100-fold and allowed to grow at 37 °C to an optical density (OD600) of 0.8, and protein expression was induced overnight at 17 °C with 1 mM IPTG in an Innova 44® Incubator shaker (New Brunswick Scientific). KDM4E was purified from pelleted cells by resuspending in lysis buffer (50 mM Tris-HCl pH 8.0, 200 mM NaCl, 5 mM β-ME, 10% glycerol, 25 mM imidazole, lysozyme, DNase, and Pierce protease inhibitor cocktail). The cells were lysed by sonication at 60 mA, 10 seconds on followed by 10 seconds off, for a total of 2 minutes. The cell debris was pelleted at 13,000 rpm for 40 minutes. The soluble cell extracts were incubated with Ni-NTA agarose resin (Thermo) according to manufactures protocol. […] Bradford Dye (BioRad) was used to quantify the protein concentration using BSA as a standard. […]

T1 sequence (P83916 21-79 limits assumed): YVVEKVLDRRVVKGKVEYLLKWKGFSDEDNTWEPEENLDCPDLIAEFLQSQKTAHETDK

| Substance | methylation by SUV39H2 (in words) [1] | methylation by G9a (in words) [2] | methylation by METTL20 (in words) [3] | methylation by METTL21C (in words) [4] | methylation by METTL21A (in words) [5] | methylation by DOT1L (in words) [6] | TΔS [7] | ΔG [7] | ΔH [7] | ΔS [7] | binding to CBX1 chromodomain (in words) [8] | demethylation by KDM4E [9] |
| --- | --- | --- | --- | --- | --- | --- | --- | --- | --- | --- | --- | --- |
| GRSGRYGRKGVAINFVK [compound 21, eIF4A3-K374me0 peptide] | also methylated eIF4A3-K374me0; also recorded: monomethylated | also methylated eIF4A3-K374me0; also recorded: di- and trimethylation | failed to methylate | failed to methylate | failed to methylate | failed to methylate | 0 kcal/mol | 0 kcal/mol | 0 kcal/mol | 0 cal/mol/degree | no detectable interaction | – |
| NTKRESGR[Lys(Me3)]VQSGNINA [compound 15, TCPG-K21me3 peptide] | – | – | – | – | – | – | – | – | – | – | – | marginally demethylated only by KDM4E |
